Test results: paper PMC8401933 (Molecules, 2021)

Experiments:
Experiment in all cases: KINOMEscan binding
Conditions in all cases: read-out: Percent Control
PIK3CB = target: T1, PIK3CB (Homo sapiens, UniProt P42338)
T1 construct: purchased Eurofins DiscoverX KINOMEscan

HIPK1 = target: T2, HIPK1 (Homo sapiens, UniProt Q86Z02)
T2 construct: purchased Eurofins DiscoverX KINOMEscan

NEK6 = target: T3, NEK6 (Homo sapiens, UniProt Q9HC98)
T3 construct: purchased Eurofins DiscoverX KINOMEscan

PIK3CA(E545A) = target: T4, PIK3CA(E545A) (Homo sapiens, UniProt P42336, E545A)
T4 construct: purchased Eurofins DiscoverX KINOMEscan

MYLK4 = target: T5, MYLK4 (Homo sapiens, UniProt Q86YV6)
T5 construct: purchased Eurofins DiscoverX KINOMEscan

PIK3CA(H1047Y) = target: T6, PIK3CA(H1047Y) (Homo sapiens, UniProt P42336, H1047Y)
T6 construct: purchased Eurofins DiscoverX KINOMEscan

CAMK2A = target: T7, CAMK2A (Homo sapiens, UniProt Q9UQM7)
T7 construct: purchased Eurofins DiscoverX KINOMEscan

ABL1-nonphosphorylated = target: T8, ABL1-nonphosphorylated (Homo sapiens, UniProt P00519)
T8 construct: purchased Eurofins DiscoverX KINOMEscan

SNARK = target: T9, SNARK (Homo sapiens, UniProt Q9H093)
T9 construct: purchased Eurofins DiscoverX KINOMEscan

TGFBR2 = target: T10, TGFBR2 (Homo sapiens, UniProt P37173)
T10 construct: purchased Eurofins DiscoverX KINOMEscan

PIM2 = target: T11, PIM2 (Homo sapiens, UniProt Q9P1W9)
T11 construct: purchased Eurofins DiscoverX KINOMEscan

TRKB = target: T12, TRKB (Homo sapiens, UniProt Q16620)
T12 construct: purchased Eurofins DiscoverX KINOMEscan

TNNI3K = target: T13, TNNI3K (Homo sapiens, UniProt Q59H18)
T13 construct: purchased Eurofins DiscoverX KINOMEscan

MST3 = target: T14, MST3 (Homo sapiens, UniProt Q9Y6E0)
T14 construct: purchased Eurofins DiscoverX KINOMEscan

EIF2AK1 = target: T15, EIF2AK1 (Homo sapiens, UniProt Q9BQI3)
T15 construct: purchased Eurofins DiscoverX KINOMEscan

PKMYT1 = target: T16, PKMYT1 (Homo sapiens, UniProt Q99640)
T16 construct: purchased Eurofins DiscoverX KINOMEscan

EPHA2 = target: T17, EPHA2 (Homo sapiens, UniProt P29317)
T17 construct: purchased Eurofins DiscoverX KINOMEscan

STK16 = target: T18, STK16 (Homo sapiens, UniProt O75716)
T18 construct: purchased Eurofins DiscoverX KINOMEscan

[1] = target: T19, RSK1(Kin.Dom.2-C-terminal) (Homo sapiens, UniProt Q15418)
T19 construct: RSK1(Kin.Dom.2-C-terminal); purchased Eurofins DiscoverX KINOMEscan

IRAK4 = target: T20, IRAK4 (Homo sapiens, UniProt Q9NWZ3)
T20 construct: purchased Eurofins DiscoverX KINOMEscan

PRKCH = target: T21, PRKCH (Homo sapiens, UniProt P24723)
T21 construct: purchased Eurofins DiscoverX KINOMEscan

LIMK2 = target: T22, LIMK2 (Homo sapiens, UniProt P53671)
T22 construct: purchased Eurofins DiscoverX KINOMEscan

PIKFYVE = target: T23, PIKFYVE (Homo sapiens, UniProt Q9Y2I7)
T23 construct: purchased Eurofins DiscoverX KINOMEscan

ICK = target: T24, ICK (Homo sapiens, UniProt Q9UPZ9)
T24 construct: purchased Eurofins DiscoverX KINOMEscan

MLCK = target: T25, MLCK (Homo sapiens, UniProt Q32MK0)
T25 construct: purchased Eurofins DiscoverX KINOMEscan

WNK1 = target: T26, WNK1 (Homo sapiens, UniProt Q9H4A3)
T26 construct: purchased Eurofins DiscoverX KINOMEscan

PIK3CA(E545K) = target: T27, PIK3CA(E545K) (Homo sapiens, UniProt P42336, E545K)
T27 construct: purchased Eurofins DiscoverX KINOMEscan

BUB1 = target: T28, BUB1 (Homo sapiens, UniProt O43683)
T28 construct: purchased Eurofins DiscoverX KINOMEscan

[2] = target: T29, RPS6KA5(Kin.Dom.1-N-terminal) (Homo sapiens, UniProt O75582)
T29 construct: RPS6KA5(Kin.Dom.1-N-terminal); purchased Eurofins DiscoverX KINOMEscan

PDPK1 = target: T30, PDPK1 (Homo sapiens, UniProt O15530)
T30 construct: purchased Eurofins DiscoverX KINOMEscan

CDK7 = target: T31, CDK7 (Homo sapiens, UniProt P50613)
T31 construct: purchased Eurofins DiscoverX KINOMEscan

CDK4-cyclinD1 = target: T32, CDK4-cyclinD1 (Homo sapiens, UniProt P11802)
T32 construct: purchased Eurofins DiscoverX KINOMEscan

DMPK = target: T33, DMPK (Homo sapiens, UniProt Q09013)
T33 construct: purchased Eurofins DiscoverX KINOMEscan

[3] = target: T34, ABL1(H396P)-nonphosphorylated (Homo sapiens, UniProt P00519, H396P)
T34 construct: purchased Eurofins DiscoverX KINOMEscan

IKK-epsilon = target: T35, IKK-epsilon (Homo sapiens, UniProt Q14164)
T35 construct: purchased Eurofins DiscoverX KINOMEscan

PRKD1 = target: T36, PRKD1 (Homo sapiens, UniProt Q15139)
T36 construct: purchased Eurofins DiscoverX KINOMEscan

OSR1 = target: T37, OSR1 (Homo sapiens, UniProt O95747)
T37 construct: purchased Eurofins DiscoverX KINOMEscan

PCTK2 = target: T38, PCTK2 (Homo sapiens, UniProt Q00537)
T38 construct: purchased Eurofins DiscoverX KINOMEscan

AURKA = target: T39, AURKA (Homo sapiens, UniProt O14965)
T39 construct: purchased Eurofins DiscoverX KINOMEscan

FGR = target: T40, FGR (Homo sapiens, UniProt P09769)
T40 construct: purchased Eurofins DiscoverX KINOMEscan

CDK4 = target: T41, CDK4 (Homo sapiens, UniProt P11802)
T41 construct: purchased Eurofins DiscoverX KINOMEscan

ITK = target: T42, ITK (Homo sapiens, UniProt Q08881)
T42 construct: purchased Eurofins DiscoverX KINOMEscan

EPHB1 = target: T43, EPHB1 (Homo sapiens, UniProt P54762)
T43 construct: purchased Eurofins DiscoverX KINOMEscan

T12 sequence (Q16620 32-822): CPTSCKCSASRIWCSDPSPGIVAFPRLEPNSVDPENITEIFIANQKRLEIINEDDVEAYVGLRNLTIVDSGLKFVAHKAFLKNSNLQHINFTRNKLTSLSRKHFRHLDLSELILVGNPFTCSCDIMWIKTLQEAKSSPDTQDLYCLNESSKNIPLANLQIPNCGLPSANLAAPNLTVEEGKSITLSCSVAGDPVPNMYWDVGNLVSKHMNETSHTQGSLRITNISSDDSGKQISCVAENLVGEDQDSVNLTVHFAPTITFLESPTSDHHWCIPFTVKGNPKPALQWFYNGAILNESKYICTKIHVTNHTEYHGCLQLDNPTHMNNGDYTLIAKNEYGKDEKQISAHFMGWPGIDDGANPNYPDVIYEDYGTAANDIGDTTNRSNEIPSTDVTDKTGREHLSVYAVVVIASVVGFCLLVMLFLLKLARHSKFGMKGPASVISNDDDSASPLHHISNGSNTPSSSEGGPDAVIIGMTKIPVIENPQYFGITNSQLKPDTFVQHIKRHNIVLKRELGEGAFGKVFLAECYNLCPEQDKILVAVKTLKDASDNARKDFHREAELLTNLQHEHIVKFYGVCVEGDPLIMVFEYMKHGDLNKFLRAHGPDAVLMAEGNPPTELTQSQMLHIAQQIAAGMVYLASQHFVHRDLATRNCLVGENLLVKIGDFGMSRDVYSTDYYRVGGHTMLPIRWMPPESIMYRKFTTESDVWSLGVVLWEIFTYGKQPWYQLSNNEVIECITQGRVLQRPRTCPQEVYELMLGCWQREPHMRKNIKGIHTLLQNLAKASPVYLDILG
T38 sequence (Q00537 whole entry): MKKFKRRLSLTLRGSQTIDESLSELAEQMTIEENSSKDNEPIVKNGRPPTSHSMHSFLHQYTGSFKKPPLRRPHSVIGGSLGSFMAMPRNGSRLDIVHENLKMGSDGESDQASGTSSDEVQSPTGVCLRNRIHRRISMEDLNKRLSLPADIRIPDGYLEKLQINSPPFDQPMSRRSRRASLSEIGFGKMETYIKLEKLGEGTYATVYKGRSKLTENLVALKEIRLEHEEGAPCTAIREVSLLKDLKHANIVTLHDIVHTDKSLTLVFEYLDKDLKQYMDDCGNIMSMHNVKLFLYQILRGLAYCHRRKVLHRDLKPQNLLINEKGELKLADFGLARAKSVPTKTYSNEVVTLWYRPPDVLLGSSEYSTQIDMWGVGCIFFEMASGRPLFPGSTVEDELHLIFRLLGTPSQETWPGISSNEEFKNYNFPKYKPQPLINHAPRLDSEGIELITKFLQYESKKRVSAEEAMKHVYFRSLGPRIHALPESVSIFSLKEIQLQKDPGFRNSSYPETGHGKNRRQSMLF
T13 sequence (Q59H18 whole entry): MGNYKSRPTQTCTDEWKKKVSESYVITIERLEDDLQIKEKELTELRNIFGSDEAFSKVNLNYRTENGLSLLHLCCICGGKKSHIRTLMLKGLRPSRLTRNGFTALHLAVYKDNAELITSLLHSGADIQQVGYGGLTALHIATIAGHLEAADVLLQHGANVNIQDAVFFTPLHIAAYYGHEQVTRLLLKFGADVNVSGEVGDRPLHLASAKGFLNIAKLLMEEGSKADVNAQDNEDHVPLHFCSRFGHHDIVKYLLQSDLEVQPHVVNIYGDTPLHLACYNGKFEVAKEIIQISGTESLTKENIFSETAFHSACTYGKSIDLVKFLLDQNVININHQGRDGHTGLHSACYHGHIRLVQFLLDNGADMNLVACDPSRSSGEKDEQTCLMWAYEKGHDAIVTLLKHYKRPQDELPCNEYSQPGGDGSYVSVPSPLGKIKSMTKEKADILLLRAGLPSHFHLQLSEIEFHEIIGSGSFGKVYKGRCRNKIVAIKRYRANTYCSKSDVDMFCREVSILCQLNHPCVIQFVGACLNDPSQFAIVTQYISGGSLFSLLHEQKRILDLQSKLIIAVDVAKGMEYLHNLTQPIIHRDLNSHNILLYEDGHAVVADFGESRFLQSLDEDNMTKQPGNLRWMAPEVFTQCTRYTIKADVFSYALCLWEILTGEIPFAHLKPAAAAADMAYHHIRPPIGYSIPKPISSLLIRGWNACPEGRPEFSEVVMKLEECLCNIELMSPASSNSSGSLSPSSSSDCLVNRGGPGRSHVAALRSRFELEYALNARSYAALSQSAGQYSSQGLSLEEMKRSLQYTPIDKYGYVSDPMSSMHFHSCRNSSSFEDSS
T37 sequence (O95747 whole entry): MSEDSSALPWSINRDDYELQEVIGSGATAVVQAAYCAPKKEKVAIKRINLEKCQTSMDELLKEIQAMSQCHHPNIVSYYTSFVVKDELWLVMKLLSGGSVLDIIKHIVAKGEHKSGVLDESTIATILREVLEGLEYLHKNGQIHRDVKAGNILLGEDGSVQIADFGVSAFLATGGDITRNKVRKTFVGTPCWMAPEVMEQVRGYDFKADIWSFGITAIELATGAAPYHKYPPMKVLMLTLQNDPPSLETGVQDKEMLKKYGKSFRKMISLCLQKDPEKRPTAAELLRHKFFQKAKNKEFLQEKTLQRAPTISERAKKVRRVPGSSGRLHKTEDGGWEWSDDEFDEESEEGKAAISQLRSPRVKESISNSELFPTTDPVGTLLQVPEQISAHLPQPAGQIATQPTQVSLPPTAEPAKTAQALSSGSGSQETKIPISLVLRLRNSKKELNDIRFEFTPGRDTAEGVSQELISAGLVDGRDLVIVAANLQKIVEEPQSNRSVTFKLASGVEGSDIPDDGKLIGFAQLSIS
T21 sequence (P24723 whole entry): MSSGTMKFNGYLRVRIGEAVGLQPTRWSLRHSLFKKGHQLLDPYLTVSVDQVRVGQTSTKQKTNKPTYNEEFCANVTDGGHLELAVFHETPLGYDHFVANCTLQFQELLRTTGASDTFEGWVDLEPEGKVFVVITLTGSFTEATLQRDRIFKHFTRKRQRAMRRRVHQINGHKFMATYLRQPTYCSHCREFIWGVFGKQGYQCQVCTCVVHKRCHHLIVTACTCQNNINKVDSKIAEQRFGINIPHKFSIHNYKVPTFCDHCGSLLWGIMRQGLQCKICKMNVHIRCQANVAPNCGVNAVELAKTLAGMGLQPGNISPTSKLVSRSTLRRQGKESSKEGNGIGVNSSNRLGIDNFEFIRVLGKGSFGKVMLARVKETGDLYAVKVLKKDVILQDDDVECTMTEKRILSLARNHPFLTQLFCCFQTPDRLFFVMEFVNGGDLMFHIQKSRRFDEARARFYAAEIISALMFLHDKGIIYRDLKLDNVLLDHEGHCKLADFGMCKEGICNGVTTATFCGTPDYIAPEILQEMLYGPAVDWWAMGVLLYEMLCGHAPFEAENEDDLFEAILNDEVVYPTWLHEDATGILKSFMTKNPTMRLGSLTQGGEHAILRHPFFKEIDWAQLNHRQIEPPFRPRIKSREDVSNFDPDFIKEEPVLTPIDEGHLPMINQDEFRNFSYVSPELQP
T1 sequence (P42338 whole entry): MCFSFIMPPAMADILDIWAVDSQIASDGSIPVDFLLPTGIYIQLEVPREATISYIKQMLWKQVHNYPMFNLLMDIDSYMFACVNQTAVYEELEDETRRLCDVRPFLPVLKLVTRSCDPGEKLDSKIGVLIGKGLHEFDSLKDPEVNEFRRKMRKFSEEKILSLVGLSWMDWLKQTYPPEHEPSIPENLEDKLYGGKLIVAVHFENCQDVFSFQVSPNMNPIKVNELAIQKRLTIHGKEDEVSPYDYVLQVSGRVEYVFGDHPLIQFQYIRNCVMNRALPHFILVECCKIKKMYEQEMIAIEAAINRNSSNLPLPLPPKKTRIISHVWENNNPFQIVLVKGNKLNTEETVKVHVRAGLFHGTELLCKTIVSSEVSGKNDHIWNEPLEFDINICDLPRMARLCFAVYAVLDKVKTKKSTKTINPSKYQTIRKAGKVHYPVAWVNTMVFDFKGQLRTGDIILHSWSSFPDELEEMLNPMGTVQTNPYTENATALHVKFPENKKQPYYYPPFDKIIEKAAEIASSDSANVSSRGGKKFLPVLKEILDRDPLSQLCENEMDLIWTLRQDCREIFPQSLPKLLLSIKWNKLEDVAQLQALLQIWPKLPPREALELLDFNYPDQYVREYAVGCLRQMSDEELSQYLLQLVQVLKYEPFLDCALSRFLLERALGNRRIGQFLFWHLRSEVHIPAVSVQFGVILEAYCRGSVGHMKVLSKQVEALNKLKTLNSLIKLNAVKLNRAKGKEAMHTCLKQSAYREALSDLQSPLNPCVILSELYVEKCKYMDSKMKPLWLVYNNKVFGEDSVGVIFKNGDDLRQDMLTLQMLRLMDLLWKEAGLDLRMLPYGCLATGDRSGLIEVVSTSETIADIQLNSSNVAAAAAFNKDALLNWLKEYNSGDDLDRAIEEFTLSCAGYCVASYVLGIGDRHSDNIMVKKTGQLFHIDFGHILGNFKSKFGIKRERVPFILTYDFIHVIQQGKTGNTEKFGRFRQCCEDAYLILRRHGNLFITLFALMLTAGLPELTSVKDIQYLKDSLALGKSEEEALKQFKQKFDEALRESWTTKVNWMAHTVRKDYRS
T18 sequence (O75716 whole entry): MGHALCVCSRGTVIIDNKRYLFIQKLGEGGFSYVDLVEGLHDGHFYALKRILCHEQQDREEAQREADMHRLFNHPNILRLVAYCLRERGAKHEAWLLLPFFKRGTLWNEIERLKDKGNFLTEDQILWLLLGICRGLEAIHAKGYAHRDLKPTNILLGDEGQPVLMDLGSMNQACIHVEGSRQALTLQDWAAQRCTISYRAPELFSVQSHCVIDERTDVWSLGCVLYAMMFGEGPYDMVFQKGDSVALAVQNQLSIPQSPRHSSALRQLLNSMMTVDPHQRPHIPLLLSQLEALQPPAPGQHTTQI
T3 sequence (Q9HC98 whole entry): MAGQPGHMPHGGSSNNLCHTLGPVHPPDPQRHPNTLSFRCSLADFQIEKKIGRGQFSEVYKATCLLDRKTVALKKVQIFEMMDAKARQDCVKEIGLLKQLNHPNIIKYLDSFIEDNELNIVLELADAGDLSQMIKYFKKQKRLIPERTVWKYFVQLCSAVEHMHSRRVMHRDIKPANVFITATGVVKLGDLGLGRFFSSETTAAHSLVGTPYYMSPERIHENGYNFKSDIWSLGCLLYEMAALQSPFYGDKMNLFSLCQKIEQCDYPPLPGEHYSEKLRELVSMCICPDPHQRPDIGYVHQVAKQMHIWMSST

## CC(C)NC(=O)COc1cccc(-c2nc(Nc3ccc4[nH]ncc4c3)c3ccccc3n2)c1 [KD025, 2-(3-(4-((1H-indazol-5-yl)amino)quinazolin-2-yl)phenoxy)-N-isopropylacetamide]
PIK3CB
  remaining binding at 10 µM: 89%
HIPK1
  remaining binding at 10 µM: 58%
NEK6
  remaining binding at 10 µM: 80%
PIK3CA(E545A)
  remaining binding at 10 µM: 65%
MYLK4
  remaining binding at 10 µM: 17%
PIK3CA(H1047Y)
  remaining binding at 10 µM: 87%
CAMK2A
  remaining binding at 10 µM: 87%
ABL1-nonphosphorylated
  remaining binding at 10 µM: 78%
SNARK
  remaining binding at 10 µM: 71%
TGFBR2
  remaining binding at 10 µM: 100%
PIM2
  remaining binding at 10 µM: 85%
TRKB
  remaining binding at 10 µM: 98%
TNNI3K
  remaining binding at 10 µM: 92%
MST3
  remaining binding at 10 µM: 72%
EIF2AK1
  remaining binding at 10 µM: 77%
PKMYT1
  remaining binding at 10 µM: 83%
EPHA2
  remaining binding at 10 µM: 59%
STK16
  remaining binding at 10 µM: 62%
[1]
  remaining binding at 10 µM: 100%
IRAK4
  remaining binding at 10 µM: 100%
PRKCH
  remaining binding at 10 µM: 96%
LIMK2
  remaining binding at 10 µM: 73%
PIKFYVE
  remaining binding at 10 µM: 12%
ICK
  remaining binding at 10 µM: 100%
MLCK
  remaining binding at 10 µM: 100%
WNK1
  remaining binding at 10 µM: 94%
PIK3CA(E545K)
  remaining binding at 10 µM: 94%
BUB1
  remaining binding at 10 µM: 69%
[2]
  remaining binding at 10 µM: 100%
PDPK1
  remaining binding at 10 µM: 70%
CDK7
  remaining binding at 10 µM: 76%
CDK4-cyclinD1
  remaining binding at 10 µM: 89%
DMPK
  remaining binding at 10 µM: 97%
[3]
  remaining binding at 10 µM: 90%
IKK-epsilon
  remaining binding at 10 µM: 70%
PRKD1
  remaining binding at 10 µM: 72%
OSR1
  remaining binding at 10 µM: 100%
PCTK2
  remaining binding at 10 µM: 94%
AURKA
  remaining binding at 10 µM: 75%
FGR
  remaining binding at 10 µM: 82%
CDK4
  remaining binding at 10 µM: 100%
ITK
  remaining binding at 10 µM: 92%
EPHB1
  remaining binding at 10 µM: 98%
